Consider 2 compounds from patent publication EP0755932A1, “(Thiophen-2-yl)piperidin or tetrahydropyridin-azabicyclocarboxamides” (AMERICAN HOME PRODUCTS CORPORATION, priority 1995, dated 1997).

pIC50: −log10 of the molar value.

The target in this test is T1, 5-HT1A serotonin receptor (Rattus norvegicus, UniProt P19327).
T1 construct: from tissue; host or cells: rat brain membranes (inferred from the cited Hall et al. procedure)
T1 sequence (P19327 1-422): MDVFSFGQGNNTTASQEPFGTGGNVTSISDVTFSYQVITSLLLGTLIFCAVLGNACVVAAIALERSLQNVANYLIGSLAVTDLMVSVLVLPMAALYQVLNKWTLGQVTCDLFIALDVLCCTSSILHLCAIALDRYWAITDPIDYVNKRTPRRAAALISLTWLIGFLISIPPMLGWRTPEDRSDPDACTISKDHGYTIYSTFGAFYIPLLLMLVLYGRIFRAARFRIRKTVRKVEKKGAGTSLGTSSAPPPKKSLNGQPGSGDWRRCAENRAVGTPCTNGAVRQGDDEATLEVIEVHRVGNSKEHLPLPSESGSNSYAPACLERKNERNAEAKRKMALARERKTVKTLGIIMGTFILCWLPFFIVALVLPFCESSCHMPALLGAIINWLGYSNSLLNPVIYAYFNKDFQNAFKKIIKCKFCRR
Put plainly: Displacement of [3H] 8-OHDPAT from the 5-HT1A serotonin receptor (procedure of Hall et al.). The format is binding. The text has this: 8-OHDPAT (dipropylaminotetralin) from the 5-HT1A serotonin receptor following the procedure of Hall et al., J. Neurochem. 44, 1685 (1985).
(In general: Displacement assays read how much labelled ligand stays bound in the presence of the test substance.)

Usually pIC50 stands for the IC50 on a negative log10 scale, so that one unit is a factor of ten. Consider `COc1ccsc1C1=CCN(CC[C@@H](C(=O)N2C3CCCC2CC3)c2ccccc2)CC1` [Example 2, (R)-1-(8-Aza-bicyclo[3.2.1.]oct-8-yl)4-[4-(3-methoxythiophen-2-yl)-1,2,3,6-tetrahydropyridin-1-yl]-2-phenylbutan-1-one], for which the pIC50 was 9.05. The figure for `COc1ccsc1C1(O)CCN(CC[C@@H](C(=O)N2C3CCCC2CC3)c2ccccc2)CC1` [Example 1, (R)-1-(8-Aza-bicyclo[3.2.1.]oct-8-yl)-4-[4-hvdroxy-4-(3-methoxythiophen-2-yl)-piperidin-1-yl]-2-phenylbutan-1-one] is 6.03.
